Structures can show the parent of a compound that is named as a salt.
Legend:
CHK1 (kinase domain) = target: T1, CHK1 (kinase domain) (Homo sapiens, UniProt O14757); test: CHK1 Ki determination, spectrophotometric coupled (pyruvate kinase/lactate dehydrogenase) assay; assay type: biochemical; conditions: CHK-1 kinase domain; 150 uM ATP, 125 uM Syntide 2
T1 construct: a solution containing 1 nM of CHK1 (kinase domain)
T1 sequence (O14757 9-265 limits assumed): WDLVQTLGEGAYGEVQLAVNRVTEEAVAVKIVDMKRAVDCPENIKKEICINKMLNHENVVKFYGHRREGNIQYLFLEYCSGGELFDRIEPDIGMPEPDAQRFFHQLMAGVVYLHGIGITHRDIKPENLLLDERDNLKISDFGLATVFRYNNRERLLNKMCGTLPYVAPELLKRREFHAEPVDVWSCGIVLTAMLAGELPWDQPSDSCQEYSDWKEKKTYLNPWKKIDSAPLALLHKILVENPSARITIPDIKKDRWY
Summary of the method: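 Ki values, or % inhibition where no Ki was obtained, come from a tight-binding fit that uses active enzyme concentration and the ATP Km. Rates were followed as NADH loss at 340 nm, with ADP production coupled via pyruvate kinase and lactate dehydrogenase. Reactions with ATP (150 uM) and Syntide 2 (125 uM) were started after the CHK1 kinase domain had stood with inhibitor for 15 min.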

Mia Paca-2 cells = test: Histone H3 (Ser10) phosphorylation ELISA, abrogation of camptothecin-induced G2 arrest (CHK-1 cellular assay); assay type: cell-based; conditions: Homo sapiens, camptothecin 8 hrs, then compound with nocodozole 16 hours
Description: The Histone H3 phosphorylation ELISA assay detects cells entering mitosis and represents the primary in vitro cell-based assay used to measure the cellular potency of compounds in abrogating the G2 check point induced by DNA damage in HeLa cells or MiaPaCa cells. The candidate substances were assayed for potency in their ability to inhibit camptothecin-induced G2 arrest, as measured by an increase in Histone H3 phosphorylation on Ser10, a marker of entry into mitosis.
The PathScan Phospho-Histone H3 (Ser10) Sandwich ELISA kit was used (Cell Signaling, #7155) and the assay was performed according to manufacturer recommendations. Tissue culture plates were seeded with HeLa cells or MiaPaCa Cells and allowed to attach overnight. The cells were then treated with camptothecin to induce DNA damage for 8 hrs. Candidate substances or diluent were then added in the presence of nocodozole for 16 hours. Cells were then lysed with buffer from Assay Designs (#80-1114) supplemented with protease inhibitors and frozen overnight. The fresh whole cell lysates were then thawed and added to the ELISA plate with shaking for 3 hours. Between all subsequent steps plates were washed 4 times with PBST. Biotinylated phospho Histone H3 (ser10) detection antibody was added for 1 hour, followed by addition of horseradish peroxidase-linked streptavidin secondary antibody for 1 hour. Color development of the antibody was performed with addition of TMB substrate and incubation for 2 minutes on a plate shaker. Stop solution was added and plates were read with absorbance at 450 nm on a spectrophotometer. EC50 values were calculated by sigmoid curve fitting using a four-parameter analysis.
Under the “Ki” column, data entries in the format of “%” are percent inhibition data where no Ki data is available. Data entry under the “EC50” column with an * are data obtained using Mia Paca-2 cells rather than HeLa cells. Data is not available where noted as n/a.

[1] = Mia Paca-2 cells (entries marked *)
[2] = MIA PaCa-2, Mia Paca-2 cells (entries marked *)

SMILES	Ki (CHK1 (kinase domain))	EC50 (Mia Paca-2 cells; [1])	EC50 (Mia Paca-2 cells; [2])
Fc1cccn2ncc(-c3cncc(N[C@@H]4CCCNC4)n3)c12 [Example 199, 6-(4-fluoropyrazolo[1,5-a]pyridin-3-yl)-N-[(3R)-piperidin-3-yl]pyrazin-2-amine]	7.82 nM	106 nM	–
Cc1cn2c(-c3cncc(N[C@@H]4CCCN[C@@H]4C)n3)cnc2cn1 [Example 285, 6-(6-methylimidazo[1,2-a]pyrazin-3-yl)-N-[(2R,3R)-2-methylpiperidin-3-yl]pyrazin-2-amine]	21.3 nM	91 nM	–
Cc1cn2c(-c3cncc(N[C@@H]4CCCN[C@@H]4C)n3)cnc2s1 [Example 161, 6-(2-methylimidazo[2,1-b][1,3]thiazol-5-yl)-N-[(2R,3R)-2-methylpiperidin-3-yl]pyrazin-2-amine]	1.47 nM	5.66 nM	–
O[C@H]1CNC[C@H](Nc2cncc(-c3cnc4ccccn34)n2)C1 [Example 203, (3R,5R)-5-{[6-(imidazo[1,2-a]pyridin-3-yl)pyrazin-2-yl]amino}piperidin-3-ol]	4.09 nM	–	134 nM
N#Cc1ccn2c(-c3cncc(N[C@@H]4CCCNC4)n3)cnc2c1 [Example 24, 3-{6-[(3R)-piperidin-3-ylamino]pyrazin-2-yl}imidazo[1,2-a]pyridine-7-carbonitrile]	6.38 nM	–	178 nM
c1cn2ncc(-c3cncc(N[C@@H]4CCCNC4)n3)c2cn1 [Example 251, N-[(3R)-piperidin-3-yl]-6-(pyrazolo[1,5-a]pyrazin-3-yl)pyrazin-2-amine, acetate salt]	10 nM	255 nM	–
Cc1ncc(-c2cnc3ccccn23)nc1N[C@@H]1CCCNC1 [Example 16, 6-(imidazo[1,2-a]pyridin-3-yl)-3-methyl-N-[(3R)-piperidin-3-yl]pyrazin-2-amine]	19.4 nM	–	81.1 nM
Cc1cn2c(-c3cncc(N[C@@H]4CCCNC4)n3)cnc2cn1 [Example 135, 6-(6-methylimidazo[1,2-a]pyrazin-3-yl)-N-[(3R)-piperidin-3-yl]pyrazin-2-amine]	12.6 nM	208 nM	–
C[C@@H]1NCCC[C@H]1Nc1cncc(-c2cnc3ccc(C(F)(F)F)cn23)n1 [Example 227, N-[(2S,3R)-2-methylpiperidin-3-yl]-6-[6-(trifluoromethyl)imidazo[1,2-a]pyridin-3-yl]pyrazin-2-amine]	92 nM	–	1000 nM
c1cn2c(-c3cncc(N[C@@H]4CCCNC4)n3)cnc2cn1 [Example 4, 6-Imidazo[1,2-a]pyrazin-3-yl-N-[(3R)-piperidin-3-yl]pyrazin-2-amine]	7.74 nM	92.8 nM	–
FC(F)(F)c1ccc2ncc(-c3cncc(N[C@@H]4CCNC4)n3)n2c1 [Example 13, N-[(3R)-pyrrolidin-3-yl]-6-[6-(trifluoromethyl)imidazo[1,2-a]pyridin-3-yl]pyrazin-2-amine]	12.8 nM	513 nM	–
CC(C)c1cn2c(-c3cncc(N[C@@H]4CC[C@@H](C)NC4)n3)cnc2s1 [Example 110, 6-(2-isopropylimidazo[2,1-b][1,3]thiazol-5-yl)-N-[(3R,6R)-6-methylpiperidin-3-yl]pyrazin-2-amine]	17.3 nM	589 nM	–
C[C@@H]1CNC[C@@H]1Nc1cncc(-c2cnc3sccn23)n1 [Example 181, 6-(imidazo[2,1-b][1,3]thiazol-5-yl)-N-[(3R,4R)-4-methylpyrrolidin-3-yl]pyrazin-2-amine]	7.2 nM	26.1 nM	–
CC(C)c1cn2c(-c3cncc(N[C@@H]4CCCNC4)n3)cnc2s1 [Example 160, N-[(3R)-piperidin-3-yl]-6-[2-(propan-2-yl)imidazo[2,1-b][1,3]thiazol-5-yl]pyrazin-2-amine]	1.07 nM	25.7 nM	–

Now from value to compound:

Ki (CHK1 (kinase domain))	EC50 (Mia Paca-2 cells; [1])	EC50 (Mia Paca-2 cells; [2])	SMILES
61.6 nM	171 nM	–	Cc1ccn2c(-c3cncc(N[C@H]4CN[C@H](COC(C)C)C4)n3)cnc2c1 [Example 240, 6-(7-methylimidazo[1,2-a]pyridin-3-yl)-N-{(3R,5S)-5-[(propan-2-yloxy)methyl]pyrrolidin-3-yl}pyrazin-2-amine]
14.9 nM	37 nM	–	COC[C@@H]1C[C@@H](Nc2cncc(-c3cnn4ccccc34)n2)CN1 [Example 261, N-[(3R,5S)-5-(methoxymethyl)pyrrolidin-3-yl]-6-(pyrazolo[1,5-a]pyridin-3-yl)pyrazin-2-amine]
2.6 nM	–	100 nM	CC(C)(O)c1ccc2ncc(-c3cncc(N[C@@H]4CCCNC4)n3)n2c1 [Example 232, 2-(3-{6-[(3R)-piperidin-3-ylamino]pyrazin-2-yl}imidazo[1,2-a]pyridin-6-yl)propan-2-ol]
0.935 nM	12.2 nM	–	CCOc1ccc2c(c1)ncn2-c1cncc(N[C@@H]2CCCNC2)n1 [Example 214, 6-(5-ethoxy-1H-benzimidazol-1-yl)-N-[(3R)-piperidin-3-yl]pyrazin-2-amine]
1 nM	7.27 nM	–	COc1ccc2c(-c3cncc(N[C@@H]4CCCNC4)n3)cnn2c1 [Example 33, 6-(6-methoxypyrazolo[1,5-a]pyridin-3-yl)-N-[(3R)-piperidin-3-yl]pyrazin-2-amine]
9.76 nM	73 nM	–	CCOc1ccc2c(c1)ncn2-c1cncc(N[C@H]2CN[C@H](COC)C2)n1 [Example 269, 6-(5-ethoxy-1H-benzimidazol-1-yl)-N-[(3R,5S)-5-(methoxymethyl)pyrrolidin-3-yl]pyrazin-2-amine]
4.38 nM	98.4 nM	–	CCOc1cc2ncn(-c3cncc(N[C@@H]4CCCNC4)n3)c2cn1 [Example 258, 6-(6-ethoxy-3H-imidazo[4,5-c]pyridin-3-yl)-N-[(3R)-piperidin-3-yl]pyrazin-2-amine]
4.9 nM	87.1 nM	–	OC[C@@H]1C[C@@H](Nc2cncc(-c3cnc4ccccn34)n2)CN1 [Example 238, [(2S,4R)-4-{[6-(imidazo[1,2-a]pyridin-3-yl)pyrazin-2-yl]amino}pyrrolidin-2-yl]methanol]
6.02 nM	68.8 nM	–	N#Cc1ccc2c(-c3cncc(N[C@@H]4CCCNC4)n3)cnn2c1 [Example 21, 3-{6-[(3R)-piperidin-3-ylamino]pyrazin-2-yl}pyrazolo[1,5-a]pyridine-6-carbonitrile]
87.6 nM	479 nM	–	COC[C@@H]1C[C@@H](Nc2cncc(-c3cnc4cc(F)ccn34)n2)CN1 [Example 236, 6-(7-fluoroimidazo[1,2-a]pyridin-3-yl)-N-[(3R,5S)-5-(methoxymethyl)pyrrolidin-3-yl]pyrazin-2-amine]
28.3 nM	542 nM	–	Clc1cc2ncn(-c3cncc(N[C@@H]4CCCNC4)n3)c2cn1 [Example 254, 6-(6-chloro-3H-imidazo[4,5-c]pyridin-3-yl)-N-[(3R)-piperidin-3-yl]pyrazin-2-amine]
2.5 nM	89.9 nM	–	C[C@@H]1CNC[C@@H]1Nc1cncc(-n2cnc3cc(OCC4(C)COC4)ccc32)n1 [Example 234, 6-{5-[(3-methyloxetan-3-yl)methoxy]-1H-benzimidazol-1-yl}-N-[(3R,4R)-4-methylpyrrolidin-3-yl]pyrazin-2-amine]
48.8 nM	–	1620 nM	CO[C@@H]1CNC[C@@H](Nc2cncc(-c3cnc4ccccn34)n2)C1 [Example 250, 6-(imidazo[1,2-a]pyridin-3-yl)-N-[(3S,5S)-5-methoxypiperidin-3-yl]pyrazin-2-amine]
118 nM	4770 nM	–	Clc1cc2c(cn1)ncn2-c1cncc(N[C@@H]2CCNC2)n1 [Example 271, 6-(6-chloro-1H-imidazo[4,5-c]pyridin-1-yl)-N-[(3R)-pyrrolidin-3-yl]pyrazin-2-amine]
57.8 nM	663 nM	–	COC[C@@H]1C[C@@H](Nc2cncc(-c3cnc4cc(C#N)ccn34)n2)CN1 [Example 188, 3-(6-{[(3R,5S)-5-(methoxymethyl)pyrrolidin-3-yl]amino}pyrazin-2-yl)imidazo[1,2-a]pyridine-7-carbonitrile]
0.929 nM	10.8 nM	–	C[C@@H]1CNC[C@@H]1Nc1cncc(-c2cnc3cc(Cl)ccn23)n1 [Example 129, 6-(7-chloroimidazo[1,2-a]pyridin-3-yl)-N-[(3R,4R)-4-methylpyrrolidin-3-yl]pyrazin-2-amine]
